Patent US8637681B2, “Pyrrolyl substituted dihydroindol-2-one derivatives, preparation methods and uses thereof” (Qilu Pharmaceutical Co., Ltd., priority 2010, dated 2014)

What was measured:
[1] = tested on: arterial ring angiogenesis in rats; test: Inhibitory actions on arterial ring angiogenesis in rats; format: cell-based; conditions: Rattus norvegicus, area covered by micrangiums vs control well, read-out: Inhibitory rate (%); for inhibition at 0.2 µg/mL: 0.2 μg/ml; for inhibition at 1 µg/mL: 1 μg/ml; for inhibition at 5 µg/mL: 5 μg/ml
How it was run: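 Rat thoracic aorta cut into 1 mm rings, embedded in Matrigel and cultured at 37 °C with compound; medium and drug renewed every 3 days. Microvessel sprouting area imaged by microscopy; inhibition (%) = (control area − drug area)/control area × 100.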

[2] = Cytotoxicity test (SRB), A549; format: cell-based; conditions: human, A549 non-small cell lung cancer cells
How it was run: (§1)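 Cells seeded at 4000/well in DMEM with 10% FBS, adhered overnight, then treated 72 h at 37° C, 5% CO2 with compound (final DMSO 0.25%). TCA-fixed and stained with SRB, A540 read. IC50 (μM) calculated by Logit method.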

[3] = Cytotoxicity test (SRB), Hela; format: cell-based; conditions: human, Hela cervical cancer cells
How it was run: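 A549, Hela and A431 cells seeded at 4000/well, adhered overnight, then exposed to compound dilutions (final DMSO 0.25%) for 72 h at 37° C., 5% CO2. SRB read-out: absorbance at 540 nm; IC50 (μM) calculated by Logit method.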

[4] = Cytotoxicity test (SRB), A431; format: cell-based; conditions: human, A431 skin cancer cells
How it was run: as §1

[5] = tested on: human colon cancer HT 29 transplanted tumor; test: Nude mice transplanted tumor test; format: in vivo, female Balb/cA nude mice; design: key to d21 Vave ± SD (average tumor volume): tumor volume TV = ½×a×b² (a, b = major, minor diameter), in mm³; conditions: for Dead animal number / inhibition in vivo at 80 mg/kg / d21 Wave ± SD (average bodyweight of nude mice) / d21 Vave ± SD (average tumor volume) / d21 RTV ± SD (relative tumor volume): 80 mg/kg intragastrically each day for 20 days; for Dead animal number: dead/total animals; for inhibition in vivo at 80 mg/kg: Mus musculus, HT-29, po, 504 h, (1−T/C)×100%, read-out: Tumor inhibition rate d21 (%); for inhibition in vivo at 80 mg/kg / d21 Wave ± SD (average bodyweight of nude mice) / d21 Vave ± SD (average tumor volume) / d21 RTV ± SD (relative tumor volume): d21; for d0 Wave ± SD (average bodyweight of nude mice): d0, at grouping before administration (baseline); for d21 Vave ± SD (average tumor volume): HT 29 in nude mice; for d21 RTV ± SD (relative tumor volume): RTV=Vt/V0
How it was run: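 Female Balb/cA nude mice bearing HT 29 colon tumour fragments in the right axilla, grouped at about 120 mm^3, received 80 mg/kg intragastrically daily for 20 days; vehicle was water with 0.1% Tween 80. Tumour volume (½×a×b^2) measured 2-3 times weekly, expressed as relative tumour volume Vt/V0.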

[6] = tested on: three kinds of tumor cells (A549, Hela, A431); test: Cytotoxicity test, summary over the three tumor cell lines; format: cell-based, human; conditions: compared with positive control Sunitinib
Procedure: Cytotoxicity of the compounds of the present invention was tested with human non-small cell lung cancer cells A549, human cervical cancer Hela cells, human skin cancer cells A431. The test was performed by referring to the method described by Rusnak et al (Rusnak D. W., et al., Cell Prolif., 2007, 40, 580-94).
In Dulbecco's Modified Eagle Medium (DMEM) comprising 10% fetal bovine serum, 2 mM glutamine and non-essential amino acids, cells were cultured at 37° C. in 5% CO2 cell incubator. Trypsin/ethylenediamine tetraacetic acid (EDTA) were used to harvest cells in cell culture bottle. The cells were added to a 96-well cell culture plate, 4000/well (0.1 ml medium), adhering wall overnight, 0.1 ml of the diluted solution of the compounds to be tested was added, the final concentration of DMSO was 0.25%. The cell culture plate was incubated at 37° C., 5% CO2 conditions for 72 h. The change of cellular morphology was observed under microscope, and then 50 μl of 50% (mass/volume) trichloroacetic acid (TCA) was added to each well to fix cells. The final concentration of TCA was 10%. It stood for 5 min, than was placed in 4° C. refrigerator for 1 h, the wells of the culture plate were washed with deionized water for 5 times to remove TCA, drained, dried in air until no wet trace was observed. 100 μl of 0.4% (mass/volume) SRB was added to each well, stood at room temperature for 10 min. The liquid in each well was discarded, and then the wells were washed with 1% acetic acid for 5 times, dried in air, extracted with 150 μl of 10 mM Tris base (trihydroxymethylaminomethane, pH 10.5). The absorption at a wavelength of 540 nm was measured. The IC50 (μM) of the compound was calculated using Logit method.

Structure (SMILES) | inhibition at 0.2 µg/mL [1] [%] | inhibition at 1 µg/mL [1] [%] | inhibition at 5 µg/mL [1] [%] | IC50 at 72 h [2] [µM] | IC50 at 72 h [3] [µM] | IC50 at 72 h [4] [µM] | Dead animal number [5] | inhibition in vivo at 80 mg/kg [5] [%] | d0 Wave ± SD (average bodyweight of nude mice) [5] | d21 Wave ± SD (average bodyweight of nude mice) [5] | d21 Vave ± SD (average tumor volume) [5] | d21 RTV ± SD (relative tumor volume) [5] | Cytotoxicity to tumor cells (in words) [6] | d21 Vave ± SD (average tumor volume) ([5]; in mm³ (unit assumed)) | Activity of inhibiting HT-29 transplanted tumor in vivo (in words) ([5]; 80 mg/kg, compared with positive control Sunitinib)
C=CC(=O)Nc1c(C)[nH]c(/C=C2\C(=O)Nc3ccc(F)cc32)c1C [Compound 7, N-{5-[5-fluoro-2-oxo-1,2-dihydro-indol-(3Z)-ylidenemethyl]-2,4-dimethyl-1H-pyrrol-3-yl}-acrylamide] | 95 | 100 | 100 | > 30 | 6.78 | > 30 | 0/6 | 59.8 | 19.4 ± 0.41 | 20.9 ± 0.38 | 359.8 ± 45.4 | 2.89 ± 1.05 | certain toxicity to some cells | – | –
CCN(CC)CCS(=O)(=O)Nc1c(C)[nH]c(/C=C2\C(=O)Nc3ccc(F)cc32)c1C [Compound 9, N-{5-[5-fluoro-2-oxo-1,2-dihydro-indol-(3Z)-ylidenemethyl]-2,4-dimethyl-1H-pyrrol-3-yl}-2-(N,N-diethylamino)ethylsulfonamide] | 93 | 100 | 100 | > 30 | > 30 | 8.58 | 0/6 | 63 | 19.6 ± 0.25 | 21.4 ± 0.38 | 328.3 ± 45.4 | 2.66 ± 0.69 | certain toxicity to some cells | – | –
Cc1[nH]c(/C=C2\C(=O)Nc3ccc(F)cc32)c(C)c1NC(=O)CCN1CCOCC1 [Compound 12, N-{5-[5-fluoro-2-oxo-1,2-dihydro-indol-(3Z)-ylidenemethyl]-2,4-dimethyl-1H-pyrrol-3-yl}-3-(morpholin-4-yl)propionamide] | 94 | 100 | 100 | > 30 | 4.75 | 7.59 | 0/6 | 79.8 | 17.2 ± 0.54 | 19.1 ± 0.57 | – | 1.45 ± 0.37 | certain toxicity to some cells | 197.9 ± 48.1 | –
Cc1[nH]c(/C=C2\C(=O)Nc3ccc(F)cc32)c(C)c1NC(=O)CCN1CCCCC1 [Compound 13, N-{5-[5-fluoro-2-oxo-1,2-dihydro-indol-(3Z)-ylidenemethyl]-2,4-dimethyl-1H-pyrrol-3-yl}-3-(piperidin-1-yl)propionamide] | 93 | 100 | 100 | > 30 | > 30 | 8.69 | 0/6 | 71.1 | 19.1 ± 0.85 | 20.1 ± 0.88 | – | 2.08 ± 0.59 | certain toxicity to some cells | 253.8 ± 56.4 | –
CCN(CC)CC(=O)Nc1c(C)[nH]c(/C=C2\C(=O)Nc3ccc(F)cc32)c1C [Compound 20, N-{5-[5-fluoro-2-oxo-1,2-dihydro-indol-(3Z)-ylidenemethyl]-2,4-dimethyl-1H-pyrrol-3-yl}-2-(N,N-diethylamino)acetamide] | 98 | 100 | 100 | > 30 | 5.21 | > 30 | 0/6 | 89.4 | 19.6 ± 0.69 | 20.3 ± 0.63 | – | 0.76 ± 0.32 | certain toxicity to some cells | 93.5 ± 42.8 | inhibitory activity comparable to the positive control Sunitinib
